The results in this text go back to ChEMBL document CHEMBL2429800, “A new trypsin inhibitory phthalic acid ester from Heliotropium strigosum” (Med Chem Res, 2013).

SMILES strings stand for the structures.

The target in the assay is Trypsin (Homo sapiens, UniProt P07477+P07478+P35030). In words: Competitive inhibition of trypsin (unknown origin) using […] as substrate incubated for 20 mins prior to substrate addition by Dixon plot/ Lineweaver-Burk plot analysis. It is filed as protein assay.

Consider `CCCCCCCCC(CC)COC(=O)c1ccccc1C(=O)OCC(CC)CCCCCCCC` (configuration not stated), for which the Ki was determined as 12.1 µM.

The molecule `O=S(=O)(F)Cc1ccccc1` [PHENYLMETHYLSULFONYLFLUORIDE] came in with a Ki of 10.01 µM.

For orientation: Ki means a measure of affinity in units of concentration, obtained from inhibition or displacement. A lower Ki goes with tighter binding.
